{
  "source": "patent US6399648B1",
  "about": "“N-oxides of heterocyclic ester, amide, thioester, or ketone for vision and memory disorders” (GPI NIL Holdings, Inc., priority 1998, dated 2002)",
  "key": {"[1]": {"system": "retinal ganglion cells and optic nerve axons", "assay": "In vivo retinal ganglion cell and optic nerve axon tests after optic nerve transection;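 for all read-outs here: adult male Sprague Dawley rats with bilateral intraorbital optic nerve transection after retrograde fluorogold labeling of retinal ganglion cells, examined on fixed retinas and optic nerve stumps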", "conditions": "for Efficacy in protecting retinal ganglion cell axons from degeneration following optic nerve transection: Table V; for RGC Counts (mean density of Fluoro-gold labeled retinal ganglion cells in 400 μm × 400 μm fields): 10 mg/kg/day sc", "method": "The extent of degeneration reduction or prevention in retinal ganglion cells and optic nerve axons was determined in a vision loss model utilizing surgical optic nerve transection to simulate mechanical damage to the optic nerve. The effects of several neuroimmunophilin FKBP ligands on retinal ganglion cells neuroprotection and optic nerve axon density was determined experimentally, comparing 14 day and 28 day neuroimmunophilin FKBP ligand treatments.\nRetinal ganglion cells were pre-labeled by bilateral stereotaxic injection of the fluorescent retrogradely transported marker fluoro-gold (FG, 0.5 microliters of 2.5% solution in saline) at the coordinates of the LGNd (4.5 millimeters post β, 3.5 millimeters lateral, 4.6 millimeters below dura). Four days later, FG labeled rats underwent a second surgery for microsurgical bilateral intraorbital optic nerve transection 4-5 millimeters behind the orbit.\nExperimental animals were divided into six experimental groups of six rats (12 eyes) per group. […] A second group received the same neuroimmunophilin FKBP ligand dose for 28 days.\nAll animals were sacrificed 90 days after optic nerve transection and perfused pericardially with formalin. All eyes and optic nerves stumps were removed. Cases were excluded from the study if the optic nerve vasculature was damaged or if FG labeling was absent in the retina.\nRetinas were removed from eyes and prepared for wholemount analysis. For each group, five eyes with dense and intense FG labeling were selected for quantitative analysis using a 20 power objective. Digital images were obtained from five fields in the central retina (3-4 millimeters radial to optic nerve head).\nProximal and distal optic nerve stumps were identified, measured, and transferred to 30% sucrose saline. […] Sections including the region 1-2 mm behind the orbit were reacted for RT97 neurofilament immunohistochemistry. Analysis of optic nerve axon density was performed using a 63 power oil immersion lens, a Dage 81 camera, and the Simple Image Analysis program. RT97 positive optic nerve axons were counted in three 200 μm by 200 μm fields per nerve. The area of the nerve was also determined for each case at 10 power."}, "FKBP12": {"target": "FKBP12 (Homo sapiens, UniProt P62942)", "sequence (P62942 whole entry, species assumed)": "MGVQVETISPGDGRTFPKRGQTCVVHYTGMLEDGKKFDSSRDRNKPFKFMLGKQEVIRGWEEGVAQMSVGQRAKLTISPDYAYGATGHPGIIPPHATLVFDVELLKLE", "assay": "Inhibition of FKBP peptidyl-prolyl isomerase (rotamase) activity, apparent Ki", "assay_type": "biochemical", "quoted_text": "The inhibition of the prolyl peptidyl cis-trans isomerase activity of FKBP may be measured as an indicator of this affinity.\nThese values are obtained as apparent Ki's.\nThe cis-trans isomerization of an alanine-proline bond in a model substrate, N-succinyl-Ala-Ala-Pro-Phe-p-nitroanilide, is monitored spectrophotometrically in a chymotrypsin-coupled assay, which releases para-nitroanilide from the trans form of the substrate. The inhibition of this reaction caused by the addition of different concentrations of inhibitor is determined, and the data is analyzed as a change in first-order rate constant as a function of inhibitor concentration to yield the apparent Ki values.\nIn a plastic cuvette are added 950 mL of ice cold assay buffer (25 mM HEPES, pH 7.8, 100 mM NaCl), 10 mL of FKBP (2.5 mM in 10 mM Tris-Cl pH 7.5, 100 mM NaCl, 1 mM dithiothreitol), 25 mL of chymotrypsin (50 mg/ml in 1 mM HCl) and 10 mL of test compound at various concentrations in dimethyl sulfoxide. The reaction is initiated by the addition of 5 mL of substrate (succinyl-Ala-Phe-Pro-Phe-para-nitroanilide, 5 mg/mL in 2.35 mM LiCl in trifluoroethanol).\nThe absorbance at 390 nm versus time is monitored for 90 seconds using a spectrophotometer and the rate constants are determined from the absorbance versus time data files."}, "[2]": {"assay": "Clearance (Table V comments, no method given)", "assay_type": "in vitro ADME"}, "retinal ganglion cells": {"system": "retinal ganglion cells", "assay": "Retinal ischemia: degeneration of retinal ganglion cells, optic nerve axons and myelin", "assay_type": "in vivo, rat", "conditions": "10 mg/kg s.c. 1 hour prior to ischemia and 10 mg/kg/day for next four days, 28 days after ischemia", "from_the_text": "Retinal ganglion cells were retrogradely labeled in adult rats by bilateral injection of fluorogold in their lateral geniculate nuclei. Labeled ganglion cells in the normal rat retina appear as white profiles against the dark background (FIG. 1A). Complete retinal ischemia was produced by infusing normal saline solution into the retinal vitreous cavity of each eye until the intraocular pressure exceeded arterial blood pressure. 28 days after the ischemic episode extensive degeneration of retinal ganglion cell was evidenced by massive reduction in the density of fluorogold labeled cells (FIG. 1B)."}, "aged mice": {"system": "aged mice", "assay": "Morris watermaze spatial learning and memory in aged rodents", "assay_type": "in vivo", "conditions": "aged impaired mice, 10 mg/kg daily, retention testing after 3 weeks of dosing", "from_the_text": "The Morris watermaze is widely used for assessing spatial memory formation and retention in experimental animals. The test depends on the animals ability to utilize spatial visual information in order to locate a submerged escape platform in a water tank. It is important that the tank itself be as devoid of specific visual features as possible—thus, it is always circular in shape, the sides are kept smooth and in uniform dull colors, and the water is rendered opaque with nontoxic watercolor pigment or powdered milk. This is to ensure that the animal navigates only by the use of more distant visual cues, or by the use of intra-maze cues specifically provided by the experimenter. The animals' path, speed, and swim time are tracked with a ceiling camera for later computerized analysis. Over the course of several successive trials, spatial learning can therefore be defined as a drop of distance swum, or time elapsed, from placement in the tank until escape onto the invisible platform. The procedure involved using-three-month old (young) and 18-19 month old male C57BL/6Nia aged) mice which habituated to the well known and conventional Morris watermaze during a 4 trials/day, 3-4 day visible platform training phase. […] Swim Distances (cm) were analyzed in a 7×5 ANOVA including Groups and Blocks (1-5) as factors in the analysis, treating Blocks as a repeated measure."}, "[3]": {"conditions": "ONT, 14 days treatment, 90 days after transection, ± SEM"}, "[4]": {"conditions": "ONT, 14 days treatment, 90 days after transection"}, "[5]": {"conditions": "ONT, 28 days treatment, 90 days after transection"}, "[6]": {"conditions": "ONT, 28 days treatment, 90 days after transection, ± SEM"}, "[7]": {"conditions": "Table V comments, read-out: Ki rotomase"}},
  "note": "Read-outs that look alike come from different tables or passages of the source. Marks after values point to notes of the source that are not given here.",
  "data": [
    {"smiles": "O=C(SCCCc1ccccc1)C1CCCN1C(=O)NC12CC3CC(CC(C3)C1)C2", "note": "(centres unmarked) [B]", "values": [
      {"measurement": "Efficacy in protecting retinal ganglion cell axons from degeneration following optic nerve transection", "setting": "[1]; ± SEM", "value": "100.0% ± 5.2% SEM"}
    ]},
    {"smiles": "O=C(SCCCc1ccccc1)C1CCCN1S(=O)(=O)Cc1ccccc1", "note": "(centres unmarked) [C]", "values": [
      {"measurement": "Efficacy in protecting retinal ganglion cell axons from degeneration following optic nerve transection", "setting": "[1]; ± SEM", "value": "60.4% ± 3.1 SEM"}
    ]},
    {"smiles": "CCC(C)(C)C(=O)C(=O)N1CCC[C@H]1C(=O)OCCCc1ccc[n+]([O-])c1", "note": "[Compound 1, 3-(3-Pyridyl)-1-propyl(2S)-1-(1,1-Dimethyl-1,2-dioxopentyl)-2-pyrrolidine-carboxylate, N-oxide]", "values": [
      {"measurement": "Ki", "setting": "FKBP12; Table B, rotamase inhibition, read-out: Ki", "value": 0.225, "unit": "µM"}
    ]},
    {"smiles": "CCC(C)(C)C(=O)C(=O)N1CCCCC1C(=O)SCCC(c1ccccc1)c1ccccc1", "note": "(centres unmarked) [Compound K]", "values": [
      {"measurement": "Efficacy in protecting retinal ganglion cell axons from degeneration following optic nerve transection", "setting": "[1]; ± SEM", "value": "13.0% ± 4.2% SEM"},
      {"measurement": "Clearance", "setting": "[2]", "value": 4.5, "unit": "µL/min"}
    ]},
    {"smiles": "CCC(C)(C)C(=O)C(=O)N1CCCCC1C(=O)OC(CCc1ccccc1)CCc1ccccc1", "note": "(centres unmarked) [E]", "values": [
      {"measurement": "Clearance", "setting": "[2]; unit printed μl/ml", "value": 41.8, "unit": "μl/ml"}
    ]},
    {"smiles": "CCC(C)(C)C(=O)C(=O)N1CCC[C@H]1C(=O)OCCCc1cccnc1", "note": "[GPI 1046]", "values": [
      {"measurement": "preservation of axons of protected neurons in the proximal stump", "setting": "[1]; Example 13, 10 mg/kg/day s.c. for 28 days, 90 days after transection", "value": "preserved the axons of virtually all protected neurons"},
      {"measurement": "perikaryal neuroprotection: ganglion cell population spared", "setting": "[1]; Example 13, 10 mg/kg/day s.c. for 28 days, sacrificed 90 days after transection", "value": 25, "unit": "%"},
      {"measurement": "RGC Counts (mean density of Fluoro-gold labeled retinal ganglion cells in 400 μm × 400 μm fields)", "setting": "[1]; [3]", "value": "small but not significant increase"},
      {"measurement": "Distal optic nerve myelin basic protein Density, loss", "setting": "[1]; [4]", "value": "slightly increase the density of myelin"},
      {"measurement": "Distal optic nerve stump shrinkage (cross sectional area vs sham)", "setting": "[1]; [4]", "value": "did not protect against shrinkage of the distal stump"},
      {"measurement": "ON axon Count (axonal density multiplied by ON area)", "setting": "[1]; [4]", "value": 6820},
      {"measurement": "increased ON axon density (adjusted for optic nerve diameter)", "setting": "[1]; [4]", "value": 1.5, "unit": "×"},
      {"measurement": "ON Axon density (RT97 labeled optic nerve axons in 200 μm × 200 μm region)", "setting": "[1]; [3]", "value": "569 ± 23"},
      {"measurement": "Proximal optic nerve myelin basic protein Density, % recovery", "setting": "[1]; [3]", "value": "1.6 ± 3.0", "unit": "SEM % recovery"},
      {"measurement": "RGC Counts (mean density of Fluoro-gold labeled retinal ganglion cells in 400 μm × 400 μm fields)", "setting": "[1]; ONT, 28 days treatment, 90 days after transection, SEM", "value": "67.9 ± 5.8"},
      {"measurement": "Distal optic nerve stump, less shrinkage", "setting": "[1]; [5]", "value": "prevented cross sectional shrinkage of the distal stump"},
      {"measurement": "ON axon Count (axonal density multiplied by ON area)", "setting": "[1]; [5]", "value": "22,861*"},
      {"measurement": "increased ON axon density (adjusted for optic nerve diameter)", "setting": "[1]; [5]", "value": 5.0, "unit": "×"},
      {"measurement": "ON Axon density (RT97 labeled optic nerve axons in 200 μm × 200 μm region)", "setting": "[1]; [6]", "value": "significant increase"},
      {"measurement": "Proximal optic nerve myelin basic protein Density, % recovery", "setting": "[1]; [6]", "value": "70 ± 6.3", "unit": "SEM % recovery"},
      {"measurement": "Efficacy in protecting retinal ganglion cell axons from degeneration following optic nerve transection", "setting": "[1]; ± SEM", "value": "60.5% ± 3.9 SEM"},
      {"measurement": "protection of fluorogold labeled retinal ganglion cells", "setting": "retinal ganglion cells", "value": "noticeable protection of a large proportion of the vulnerable ganglion cell population"},
      {"measurement": "spatial memory performance (swim distance) in retention testing", "setting": "aged mice", "value": "significantly enhanced spatial memory performance"},
      {"measurement": "Clearance", "setting": "[2]", "value": 63.8, "unit": "µL/min"}
    ]},
    {"smiles": "CCC(C)(C)C(=O)C(=O)N1CCCCC1C(=O)O", "note": "(centres unmarked) [G]", "values": [
      {"measurement": "Efficacy in protecting retinal ganglion cell axons from degeneration following optic nerve transection", "setting": "[1]; ± SEM", "value": "34.0% ± 4.8% SEM"},
      {"measurement": "Ki", "setting": "FKBP12; [7]", "value": "> 10", "unit": "µM"}
    ]},
    {"smiles": "CCC(C)(C)C(=O)C(=O)N1CCCCC1C(N)=O", "note": "(centres unmarked) [H]", "values": [
      {"measurement": "Efficacy in protecting retinal ganglion cell axons from degeneration following optic nerve transection", "setting": "[1]; ± SEM", "value": "30.3% ± 8.0% SEM"}
    ]},
    {"smiles": "O=C(OCCCc1cccnc1)[C@@H]1CCCN1C(=S)NC1CCCCC1", "note": "[I]", "values": [
      {"measurement": "Efficacy in protecting retinal ganglion cell axons from degeneration following optic nerve transection", "setting": "[1]; ± SEM", "value": "23.8% ± 5.3 SEM"}
    ]},
    {"smiles": "CCC(C)(C)C(=O)C(=O)N1CCCC1C(=O)CCCCc1cccnc1", "note": "(centres unmarked) [J]", "values": [
      {"measurement": "Efficacy in protecting retinal ganglion cell axons from degeneration following optic nerve transection", "setting": "[1]; ± SEM", "value": "15.8% ± 4.8% SEM"},
      {"measurement": "Clearance", "setting": "[2]", "value": 1.5, "unit": "µL/min"}
    ]},
    {"smiles": "CCC(C)(C)C(=O)C(=O)N1CCCC1C(=O)O", "note": "(centres unmarked) [L]", "values": [
      {"measurement": "Efficacy in protecting retinal ganglion cell axons from degeneration following optic nerve transection", "setting": "[1]; ± SEM", "value": "7.8% ± 3.0% SEM"},
      {"measurement": "Ki", "setting": "FKBP12; [7]", "value": "> 7.74", "unit": "µM"}
    ]},
    {"smiles": "CCC(C)(C)C(=O)C(=O)N1CCC[C@H]1C(=O)SCCC(c1ccccc1)c1ccccc1", "note": "[M]", "values": [
      {"measurement": "Efficacy in protecting retinal ganglion cell axons from degeneration following optic nerve transection", "setting": "[1]; ± SEM", "value": "−6.3", "unit": "% + 3.9% SEM"}
    ]},
    {"smiles": "CN(C)C(=O)N1CCCC1C(=O)SCCCc1ccccc1", "note": "(centres unmarked) [N]", "values": [
      {"measurement": "Clearance", "setting": "[2]; unit printed μl/ml", "value": 21.9, "unit": "μl/ml"}
    ]}
  ]
}
